“Also recorded” adds a separate entry of the source.
Key:
ear of the BALB/c mouse = test: Tolerance study: anti-irritant in preventive treatment before topical Differin gel, ear thickness (edema); type: in vivo; details: for effect of the anti-irritant on the irritation caused by Differin gel (in words): anti-irritant applied before Differin gel; for % AUC inhibition vs Differin (reduction of edema/irritation due to Differin gel): anti-irritant solution followed by Differin gel, D1-D6, AUC D2-D19
Procedure: The anti-irritants used are formulated, unless otherwise indicated, in an ethanol/water (50:50) vehicle at the concentrations shown in the table below.
The goal of the present study is to compare the irritant power of a reference gel, comprising 0.1% adapalene, when this treatment is preceded or not preceded by treatment with an anti-irritant.
The treatment consists of a daily topical application (20 μl) of anti-irritant, formulated in an aqueous/alcoholic vehicle (50% ethanol and 50% water by volume), on the internal face of the right ear of BALB/c mice divided into 15 groups (female mice approximately 9 weeks old), followed by a topical application (20 μl) of Differin® gel (reference gel comprising 0.1% adapalene) at the rate of one application of each formulation per day for 6 days.
Evaluation is carried out by measurements of the thickness of the ear by means of the Oditest and by clinical observation of the animals from the 2nd to 19th day.

[1] = system: comedones on the back of the Rhino mouse; test: Comedolytic activity of Differin gel alone or preceded by an anti-irritant on the Rhino mouse; type: in vivo; details: split treatment, 18 days
From the text: The goal of the present study is to compare the comedolytic activity of Differin® gel (reference gel comprising 0.1% adapalene) whether this treatment is preceded or not preceded by a treatment with an anti-irritant.

Row | Compound | effect of the anti-irritant on the irritation caused by Differin gel (in words) (ear of the BALB/c mouse) | % AUC inhibition vs Differin (reduction of edema/irritation due to Differin gel) (ear of the BALB/c mouse) [%] | effect on the comedolytic activity of Differin gel (in words) [1]
1 | Potassium disodium salt of β-glycyrrhizic acid [reference compound] | virtually no effect; also recorded: do not have an effect |  | 
2 | Sodium choleate | slightly reduces; also recorded: effective in reducing the irritation | 9 | 
3 | NC(=O)NC1NC(=O)NC1=O (stereo not drawn) [allantoin, Allantoin] | effective in reducing the irritation |  | does not reduce the comedolytic activity
4 | O=S(=O)([O-])[O-].[Zn+2] [zinc sulfate, Zinc sulfate] | a reduction in the irritation; also recorded: effective in reducing the irritation | 25 | 
5 | O=C(O)CN(CCN(CC(=O)O)CC(=O)O)CC(=O)O [EDTA] | effective in reducing the irritation |  | 
6 | O.O.O.O.O.O.[Cl-].[Cl-].[Sr+2] [strontium chloride hexahydrate, Strontium chloride hexahydrate] | effective in reducing the irritation |  | 
7 | O=[N+]([O-])[O-].O=[N+]([O-])[O-].[Sr+2] [strontium nitrate, Strontium nitrate] | effective in reducing the irritation |  | does not reduce the comedolytic activity
8 | CC1(C)[C@@H](O)CC[C@]2(C)[C@H]3C(=O)C=C4[C@@H]5C[C@@](C)(C(=O)O)CC[C@]5(C)CC[C@@]4(C)[C@]3(C)CC[C@@H]12 [enoxolone, Enoxolone, reference compound] | virtually no effect; also recorded: do not have an effect |  | 

Source: US20090098219A1, “Cosmetic/pharmaceutical compositions comprising retinoids and anti-irritants and treatment of keratinization disorders therewith” (GALDERMA RESEARCH & DEVELOPMENT, priority 2005, published 2009)
